# Laboratory results from patent US5681832A, “Aroylaniline compounds, pharmaceutical compositions, and methods of using same to inhibit viral activity” (priority 1995, dated 1997).
# Where a name gives a salt, the structure may show the parent alone. Read-outs that look alike come from different tables or passages of the source.
# Columns and labels:
# HIV-1 = test: in vitro anti-HIV screening (NCI XTT soluble-formazan assay, protection of HIV-1-infected CEM T4 lymphocytes from cytolysis); assay type: cell-based; conditions: for EC50: 144 h, HIV-1-infected CEM cells, 6 days, approximate values, read-out: EC50 (Molar), 50% effective concentration; for TI50 (IC/EC), therapeutic index: IC50/EC50; for Conclusion: NCI anti-HIV screen; for inhibition at 200 µM / activity at 200 µM: 2.00 × 10^-4 Molar; for inhibition at 20 µM / activity at 20 µM: 2.00 × 10^-5 Molar; for inhibition at 2 µM / activity at 2 µM: 2.00 × 10^-6 Molar; for inhibition at 0.2 µM / activity at 0.2 µM: 2.00 × 10^-7 Molar; for inhibition at 63.2 µM / activity at 63.2 µM: 6.32 × 10^-5 Molar; for inhibition at 6.33 µM / activity at 6.33 µM: 6.33 × 10^-6 Molar; for inhibition at 0.634 µM / activity at 0.634 µM: 6.34 × 10^-7 Molar; for inhibition at 0.0635 µM / activity at 0.0635 µM: 6.35 × 10^-8 Molar
# Description: The aroylaniline compounds of the present invention were subjected to in vitro screening to determine their anti-HIV activity.
# The National Cancer Institute's procedure for testing for agents active against Human Immunodeficiency Virus (HIV) (Weislow, O. W. et al., "New soluble-formazan assay for HIV-1 cytopathic effects: application to high-flux screening of synthetic and natural products for AIDS-antiviral activity," J. Natl Cancer Inst., 81, 577-586 (1989)) is designed to detect agents acting at any stage of the virus reproductive cycle. The assay includes the killing of T4 lymphocytes by HIV. Pursuant to the test, small amounts of HIV are added to cells, and a complete cycle of virus reproduction is necessary to obtain the required cell killing. Agents that interact with virions, cells, or virus gene-products to interfere with viral activities will protect cells from cytolysis. The system is thus designed to detect anti-HIV activity. However, compounds that are chemically labile or are rapidly metabolized in the culture conditions may not show activity in this screen. All tests are compared with at least one positive (e.g., AZT-treated) control done at the same time under identical conditions.
# (§1) 1. Candidate agent is dissolved in dimethyl sulfoxide (unless otherwise instructed) and then diluted 1:100 in cell culture medium before preparing serial half-log10 dilutions which are then to 96-well microfilter plates. T4 lymphocytes (CEM cell line) are added, and after a brief interval HIV-1 is added to all wells, resulting in a 1:200 final dilution […]. Uninfected cells with the compound serve as a toxicity control, and infected and uninfected cells without the compound serve as basic controls.
# (§2) 2. Cultures are incubated at 37° C. in a 5% carbon dioxide atmosphere for 6 days.
# (§3) 3. The tetrazolium salt, XTT, is added to all wells, and cultures are incubated to allow formazan color development by viable cells.
# (§4) 4. Individual wells are analyzed spectrophotometrically to quantitate formazan production, and in addition are viewed microscopically for detection of viable cells and confirmation of protective activity.
# (§5) 5. Drug-tested virus-infected cells are compared with drug-treated noninfected cells and with other appropriate controls (untreated infected and untreated noninfected cells, drug-containing wells without cells, etc.) on the same plate.
# 6. Data are reviewed in comparison with other tests done at the same time and a determination about activity is made.
# The aroylaniline compounds of the present invention were tested for anti-HIV activity according to the above procedure. FIGS. 1-6 represent test results of the aroylaniline compounds of Compounds 1, 3, 13, 14, 29 and 32.
# (§6) FIGS. 1 to 6 display a plot of the log10 of the concentrations (as μg/mL or molar as shown) of the aroylaniline compounds, Compounds 1, 3, 13, 14, 29 and 32, against the measured test values expressed as a percentage of the uninfected, untreated control values. The solid line depicts the percentage of surviving HIV-infected cells treated with sample (at the indicated concentration) relative to uninfected, untreated controls. Thus, the solid line expresses the anti-HIV activity of the compound. The dashed line depicts the percentage of surviving uninfected cells treated with the compound relative to the same uninfected, untreated controls. Thus, the dashed line expresses the growth inhibitory properties of the compound. The viral cytopathic effect […] is indicated by a dotted reference line. […] Survival values of this parameter less than 50% are considered acceptable in the current protocol. Approximate values for 50% effective concentration (EC50) have been calculated for each test and are set forth for these Compounds in Tables 2-7, respectively.
# [1] = system: T4 lymphocytes (CEM cell line); test: toxicity control: survival of uninfected T4 lymphocytes (CEM cell line) treated with compound (growth inhibition); assay type: cell-based; conditions: Homo sapiens, CCRF-CEM; for IC50: 144 h, read-out: IC50 (Molar)
# Experimental: as §1, §2, §3, §4, §5, §6
# [2] = Human immunodeficiency virus 1, CCRF-CEM
# [3] = Human immunodeficiency virus 1, CCRF-CEM, read-out: Percent of Protection
# [4] = Human immunodeficiency virus 1, CEM-T4, read-out: Percent of Control, Infected
# [5] = read-out: Percent of Control, Uninfected
smiles,measurement,setting,value
"O=C(Nc1ccc(/C=C/c2ccc(NC(=O)c3cc(S(=O)(=O)O)c4cccnc4c3O)cc2S(=O)(=O)O)c(S(=O)(=O)O)c1)Nc1ccc(/C=C/c2ccc(NC(=O)c3cc(S(=O)(=O)O)c4cccnc4c3O)cc2S(=O)(=O)O)c(S(=O)(=O)O)c1 [Compound 3, 1,3-di[2,2'-disulfo-4(8-hydroxy-5-sulfo-7-quinoline)]stilbene urea, hexasodium salt]",EC50,HIV-1; [2],4.06 µM
same,inhibition at 15.8 µM,"HIV-1; Human immunodeficiency virus 1, CCRF-CEM, 1.58 × 10^-5 Molar, read-out: Percent of Protection",92.9%
same,inhibition at 1.58 µM,"HIV-1; Human immunodeficiency virus 1, CCRF-CEM, 1.58 × 10^-6 Molar, read-out: Percent of Protection",0.19%
same,inhibition at 0.158 µM,"HIV-1; Human immunodeficiency virus 1, CCRF-CEM, 1.58 × 10^-7 Molar, read-out: Percent of Protection",-1.29%
same,inhibition at 0.0158 µM,"HIV-1; Human immunodeficiency virus 1, CCRF-CEM, 1.58 × 10^-8 Molar, read-out: Percent of Protection",0.19%
same,inhibition at 50 µM,"HIV-1; Human immunodeficiency virus 1, CCRF-CEM, 5.00 × 10^-5 Molar, read-out: Percent of Protection",90.8%
same,inhibition at 5 µM,"HIV-1; Human immunodeficiency virus 1, CCRF-CEM, 5.00 × 10^-6 Molar, read-out: Percent of Protection",61.1%
same,inhibition at 0.501 µM,"HIV-1; Human immunodeficiency virus 1, CCRF-CEM, 5.01 × 10^-7 Molar, read-out: Percent of Protection",2%
same,inhibition at 0.0502 µM,"HIV-1; Human immunodeficiency virus 1, CCRF-CEM, 5.02 × 10^-8 Molar, read-out: Percent of Protection",0.51%
same,activity at 15.8 µM,"HIV-1; Human immunodeficiency virus 1, CEM-T4, 1.58 × 10^-5 Molar, read-out: Percent of Control, Infected",93.2%
same,activity at 1.58 µM,"HIV-1; Human immunodeficiency virus 1, CEM-T4, 1.58 × 10^-6 Molar, read-out: Percent of Control, Infected",4.18%
same,activity at 0.158 µM,"HIV-1; Human immunodeficiency virus 1, CEM-T4, 1.58 × 10^-7 Molar, read-out: Percent of Control, Infected",2.76%
same,activity at 0.0158 µM,"HIV-1; Human immunodeficiency virus 1, CEM-T4, 1.58 × 10^-8 Molar, read-out: Percent of Control, Infected",4.18%
same,activity at 50 µM,"HIV-1; Human immunodeficiency virus 1, CEM-T4, 5.00 × 10^-5 Molar, read-out: Percent of Control, Infected",91.1%
same,activity at 5 µM,"HIV-1; Human immunodeficiency virus 1, CEM-T4, 5.00 × 10^-6 Molar, read-out: Percent of Control, Infected",62.7%
same,activity at 0.501 µM,"HIV-1; Human immunodeficiency virus 1, CEM-T4, 5.01 × 10^-7 Molar, read-out: Percent of Control, Infected",5.92%
same,activity at 0.0502 µM,"HIV-1; Human immunodeficiency virus 1, CEM-T4, 5.02 × 10^-8 Molar, read-out: Percent of Control, Infected",4.49%
same,"TI50 (IC/EC), therapeutic index",HIV-1,> 1.23 × 10^+1
same,Conclusion,HIV-1,CONFIRMED ACTIVE
same,IC50,"[1]; uninfected CEM cells, 6 days",> 50 µM
same,activity at 15.8 µM,"[1]; 1.58 × 10^-5 Molar, read-out: Percent of Control, Uninfected",103%
same,activity at 1.58 µM,"[1]; 1.58 × 10^-6 Molar, read-out: Percent of Control, Uninfected",95.7%
same,activity at 0.158 µM,"[1]; 1.58 × 10^-7 Molar, read-out: Percent of Control, Uninfected",94.4%
same,activity at 0.0158 µM,"[1]; 1.58 × 10^-8 Molar, read-out: Percent of Control, Uninfected",111%
same,activity at 50 µM,"[1]; 5.00 × 10^-5 Molar, read-out: Percent of Control, Uninfected",98%
same,activity at 5 µM,"[1]; 5.00 × 10^-6 Molar, read-out: Percent of Control, Uninfected",97%
same,activity at 0.501 µM,"[1]; 5.01 × 10^-7 Molar, read-out: Percent of Control, Uninfected",97.7%
same,activity at 0.0502 µM,"[1]; 5.02 × 10^-8 Molar, read-out: Percent of Control, Uninfected",95.8%
"O=C(Nc1ccc(C=Cc2ccc(NC(=O)c3cc(S(=O)(=O)O)c4cccnc4c3O)cc2S(=O)(=O)O)c(S(=O)(=O)O)c1)c1cc(S(=O)(=O)O)c2cccnc2c1O [Compound 1, 4,4'-di(8-hydroxy-5-sulfo-7-quinolinecarboxyamido)stilbene-2,2'disulfonic acid tetrasodium salt]",EC50,HIV-1; [2],1.44 µM
same,inhibition at 200 µM,HIV-1; [3],-26%
same,inhibition at 20 µM,HIV-1; [3],107%
same,inhibition at 2 µM,HIV-1; [3],68.6%
same,inhibition at 0.2 µM,HIV-1; [3],5.09%
same,inhibition at 63.2 µM,HIV-1; [3],85.6%
same,inhibition at 6.33 µM,HIV-1; [3],121%
same,inhibition at 0.634 µM,HIV-1; [3],3.41%
same,inhibition at 0.0635 µM,HIV-1; [3],-5.09%
same,activity at 200 µM,HIV-1; [4],4.26%
same,activity at 20 µM,HIV-1; [4],105%
same,activity at 2 µM,HIV-1; [4],76.2%
same,activity at 0.2 µM,HIV-1; [4],27.9%
same,activity at 63.2 µM,HIV-1; [4],89.1%
same,activity at 6.33 µM,HIV-1; [4],116%
same,activity at 0.634 µM,HIV-1; [4],26.6%
same,activity at 0.0635 µM,HIV-1; [4],20.1%
same,"TI50 (IC/EC), therapeutic index",HIV-1,8.28 × 10^+1
same,Conclusion,HIV-1,CONFIRMED ACTIVE
same,IC50,"[1]; uninfected CEM cells, 6 days",120 µM
same,activity at 200 µM,"[1]; 2.00 × 10^-4 Molar, read-out: Percent of Control, Uninfected",6.47%
same,activity at 20 µM,"[1]; 2.00 × 10^-5 Molar, read-out: Percent of Control, Uninfected",109%
same,activity at 2 µM,"[1]; 2.00 × 10^-6 Molar, read-out: Percent of Control, Uninfected",106%
same,activity at 0.2 µM,"[1]; 2.00 × 10^-7 Molar, read-out: Percent of Control, Uninfected",102%
same,activity at 63.2 µM,"[1]; 6.32 × 10^-5 Molar, read-out: Percent of Control, Uninfected",104%
same,activity at 6.33 µM,"[1]; 6.33 × 10^-6 Molar, read-out: Percent of Control, Uninfected",117%
same,activity at 0.634 µM,"[1]; 6.34 × 10^-7 Molar, read-out: Percent of Control, Uninfected",105%
same,activity at 0.0635 µM,"[1]; 6.35 × 10^-8 Molar, read-out: Percent of Control, Uninfected",97.6%
O=C(O)CSCc1cc(C(=O)Nc2ccc(C=Cc3ccc(NC(=O)c4cc(CSCC(=O)O)c5cccnc5c4O)cc3S(=O)(=O)O)c(S(=O)(=O)O)c2)c(O)c2ncccc12 [Compound 14],EC50,HIV-1; [2],0.805 µM
same,inhibition at 200 µM,HIV-1; [3],27.6%
same,inhibition at 20 µM,HIV-1; [3],16.6%
same,inhibition at 2 µM,HIV-1; [3],147%
same,inhibition at 0.2 µM,HIV-1; [3],17.6%
same,inhibition at 63.2 µM,HIV-1; [3],6.56%
same,inhibition at 6.33 µM,HIV-1; [3],151%
same,inhibition at 0.634 µM,HIV-1; [3],25%
same,inhibition at 0.0635 µM,HIV-1; [3],16%
same,activity at 200 µM,HIV-1; [4],29.8%
same,activity at 20 µM,HIV-1; [4],19.1%
same,activity at 2 µM,HIV-1; [4],146%
same,activity at 0.2 µM,HIV-1; [4],20%
same,activity at 63.2 µM,HIV-1; [4],9.36%
same,activity at 6.33 µM,HIV-1; [4],149%
same,activity at 0.634 µM,HIV-1; [4],27.2%
same,activity at 0.0635 µM,HIV-1; [4],18.5%
same,"TI50 (IC/EC), therapeutic index",HIV-1,2.05 × 10^+2
same,Conclusion,HIV-1,CONFIRMED ACTIVE
same,IC50,[1],16.5 µM
same,activity at 0.0635 µM,[1]; [5],80.2%
same,activity at 0.2 µM,[1]; [5],88.9%
same,activity at 0.634 µM,[1]; [5],122%
same,activity at 2 µM,[1]; [5],206%
same,activity at 6.33 µM,[1]; [5],221%
same,activity at 20 µM,[1]; [5],15.5%
same,activity at 63.2 µM,[1]; [5],2.52%
same,activity at 200 µM,[1]; [5],-0.84%
